Source: paper PMC12392461, “Beyond Estrogenicity: A Comparative Assessment of Bisphenol A and Its Alternatives in In Vitro Assays Questions Safety of Replacements” (Environmental Science & Technology, 2025)
Where two headings read alike, the source gives them in different places.

Columns and labels:
[1] = Octanol-water partition constant (log Kow) measurement, Sirius T3 potentiometric log P; type: physicochemical; conditions: experimental, this study
Procedure: Physicochemical properties provide input parameters for the baseline toxicity model. Acidity constants (pK a) and octanol–water partition constants of the neutral species (K ow) were measured with a Sirius T instrument from Pion Inc. (Sussex, UK) (Text S1.2 and Table S1). A detailed description of the pK a and K ow measurements can be found in literature. , […]
S1.2: pKa and log Kow measurements […]
titrator (Pion Inc., Sussex, U.K.). […]
UV absorbance. For log Kow measurement, approximately 1 mg of test chemical was added to a sample vial and the measurement was done automatically via the potentiometric log P protocol. Briefly, each compound is titrated thrice in an immiscible biphasic system of octanol and phosphate buffer solution and pH is continuously recorded. The shift in p Ka -values was used to estimate the log Kow values.2, 3 Data processing was performed with Sirius T3 Refine software (version 2.0.0.0.), and the final p Ka and log Kow values were calculated as the average of three titrations. To ensure reproducibility, measurements were conducted on at least two

[2] = 15 min
Procedure: (§1) The mixtures were adjusted to a final volume of 100 μL with acetonitrile (ACN). The reaction mix was incubated for 15 min at 30 °C and 1000 rpm on a Bioshake iQ orbital shaker from QInstruments (Jena, Germany). Additionally, a mixture without test compounds was prepared as a control. Subsequently, 10 μL of the reaction mixture was transferred into a conical dosing vial and evaporated under a nitrogen flow.
(§2) For chemical analysis, 10 μL of the reaction mixture was concentrated under vacuum (CentriVap, Labconco, Kansas City, MO, USA), diluted to 1 mg/L in ACN or ethyl acetate. The chemical analysis of the reaction mixtures was performed using liquid chromatography (LC) and gas chromatography (GC) coupled with various detection techniques, preferably Multiple Reaction Monitoring (MRM). Data acquisition and processing were carried out using the software MassHunter. Quantification was based on external calibrations.
(§3) The Cparent-Ratio quantifies the extent of oxidation of the parent compound after the abiotic CYP reaction. It was calculated as the ratio of the parent compound concentration after oxidation (C parent, after oxidation) to its concentration before oxidation (C parent, before oxidation) as shown in eq . […] 8 Cparent‐Ratio=Cparent,after oxidation/Cparent,before oxidation

Tox21 assays [3] = conditions: cited from earlier work
ERα = conditions: cited from earlier work
Tox21 assays [4] = experiment: Re-evaluated Tox21 data (Adamovsky et al.), REPBPA and SRbaseline; conditions: for SRbaseline: Specificity Ratio;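 on all read-outs here: published Tox21 results reanalysed with a revised model predicting baseline toxicity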
Excerpt: We also reanalyzed the Tox21 data of Adamovsky et al. with the updated baseline toxicity prediction model (Table S2).

Estrogen Receptor ERα = target: T1, Estrogen Receptor ERα (Homo sapiens, UniProt P03372); experiment: cell-based; conditions: for EC10, ERα (M): 10% of maximum effect of E2; for Efficacy % / EC10 / REPBPA: This Study; for EC10: ERα; for REPBPA: relative estrogenic potency vs BPA; for EC10, ERα: effect; for log(1/EC10) ERα: input of the ToxPi score, values up to 1.00
T1 sequence (P03372 311-547 limits assumed): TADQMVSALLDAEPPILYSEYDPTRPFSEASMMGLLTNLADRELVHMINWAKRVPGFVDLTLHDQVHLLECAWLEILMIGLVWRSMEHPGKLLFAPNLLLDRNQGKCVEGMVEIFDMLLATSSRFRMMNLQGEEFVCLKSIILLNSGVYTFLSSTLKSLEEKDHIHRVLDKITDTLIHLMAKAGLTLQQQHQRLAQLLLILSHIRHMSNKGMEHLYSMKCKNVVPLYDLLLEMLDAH
Procedure, shortened: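 Reporter cells (ERα-UAS-bla GripTite; PPARγ-UAS-bla) grew 24 h at 37 °C, 5% CO₂ in medium containing 2% charcoal-stripped FBS. Cytotoxicity, tracked as IncuCyte confluency, capped data at IC10 for EC10 derivation. Emax% is the fitted log-logistic maximum expressed against the reference chemical's maximum.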

PPARγ = system: PPARγ; design: method as in Crosthwait et al. 2025; Sun et al. 2025; conditions: ref Crosthwait et al. 2025; Sun et al. 2025; cited from earlier work
[5] = Abiotic CYP (aCYP) oxidation, remaining parent compound (Cparent-Ratio); conditions: for Cparent-Ratio Rep.1 %: Table S9, replicate 1; for Cparent-Ratio Rep.2 %: Table S9, replicate 2
Procedure: as §1, §2, §3

[6] = TOX21_PPARg_BLA_antagonist_ratio, re-evaluated Tox21 data, ref Adamovsky et al 2024
[7] = Tox21BLA, ref Adamovsky et al. 2024
[8] = Tox21Luc, ref Adamovsky et al. 2024
[9] = TOX21_AR_LUC_MDAKB2_Antagonist_0,5nM_R1881, Relative Effect Potency
[10] = TOX21_AR_LUC_MDAKB2_Antagonist_0,5nM_R1881
[11] = TOX21_PPARg_BLA_antagonist_ratio
[12] = Bioassay ERα, dosing range all, in M
[13] = Bioassay ERα, dosing range all, linear model fit, in M
[14] = Bioassay ERα, dosing range all, log-logistic model fit
[15] = read-out: Emax%ERα, maximum efficacy relative to E2
[16] = estrogen receptor from Atlantic cod (Gadus morhua), ref Goksøyr et al 2024
[17] = Table S9, loss of parent after aCYP oxidation
[18] = Table S9, mean of two replicate experiments
[19] = Table S9, replicate 1, as fraction
[20] = Table S9, replicate 2, as fraction
[21] = Table S11, measured simultaneously with bioassay

SMILES: CC(c1ccccc1)(c1ccc(O)cc1)c1ccc(O)cc1 [BPAP, 4,4'-(1-Phenylethylidene)bisphenol]
- log Kow used [1]: 5.06
- reduction of C parent after aCYP oxidation [2]: 25%
- EC10 (Tox21 assays [3]; TOX21_CAR_Antagonist, re-evaluated Tox21 data, ref Adamovsky et al 2024): 1.11e-06 M
- EC50 (ERα; ref Kojima et al 2019): 1900 nM
- Efficacy % (ERα; ref Pelch et al 2019): 45.40%
- EC50 (ERα; ref Reiniger et Oehlmann 2024): 932 nM
- Efficacy % (ERα; ref Reiniger et Oehlmann 2024): 1.06E+02%
- REPBPA (Tox21 assays [4]; ATG_NRF2_ARE_CIS_up, Relative Effect Potency): 3.88
- SRbaseline (Tox21 assays [4]; ATG_NRF2_ARE_CIS_up): 15.59
- SRbaseline (Tox21 assays [4]; TOX21_CAR_Antagonist): 27.45

SMILES: CC(c1ccc(O)cc1)c1ccc(O)cc1 [BPE, 4,4′-Ethylidenbisphenol]
- log Kow used [1]: 4.05
- % Loss [2]: 21%
- EC10 (Tox21 assays [3]; TOX21_AR_LUC_MDAKB2_Antagonist_0,5nM_R1881, re-evaluated Tox21 data, ref Adamovsky et al 2024): 1.63e-06 M
- EC10 (Tox21 assays [3]; TOX21_CAR_Agonist, re-evaluated Tox21 data, ref Adamovsky et al 2024): 1.04e-05 M
- EC10 (Tox21 assays [3]; [6]): 1.02e-05 M
- EC10 (Tox21 assays [3]; [7]): 1.36E-06
- EC10 (Tox21 assays [3]; [8]): 3.57E-08
- REPBPA (Tox21 assays [4]; [9]): 1.49
- SRbaseline (Tox21 assays [4]; [10]): 76.62
- REPBPA (Tox21 assays [4]; TOX21_CAR_Agonist, Relative Effect Potency): 0.13
- SRbaseline (Tox21 assays [4]; TOX21_CAR_Agonist): 11.95
- SRbaseline (Tox21 assays [4]; [11]): 12.24
- REPBPA (Tox21 assays [4]; [7]): 4.35E-01
- REPBPA (Tox21 assays [4]; [8]): 6.37E-01

SMILES: Oc1ccc(Cc2ccc(O)cc2)cc1 [BPF, Bis(4-hydroxyphenyl)methane]
- EC10, ERα (M) (Estrogen Receptor ERα): 9.95 × 10^–7 M
- EC10, linear transformed (Estrogen Receptor ERα; [12]): 9.67E-07
- EC10, linear (Estrogen Receptor ERα; [13]): 1.45E-06
- logEC10 (Estrogen Receptor ERα; [14]): -6.00
- Efficacy % (Estrogen Receptor ERα): 60.05%
- EC10 (Estrogen Receptor ERα; in M): 9.95E-07
- REPBPA (Estrogen Receptor ERα): 3.72E-01
- EC10, ERα (Estrogen Receptor ERα): 995 nM
- log(1/EC10) ERα (Estrogen Receptor ERα): 0.77
- Emax%ERα (Estrogen Receptor ERα; maximum efficacy relative to E2): 60%
- Emax (Estrogen Receptor ERα; [15]): 50 to 60%
- log Kow used [1]: 2.71
- reduction of C parent after aCYP oxidation [2]: 48%
- EC10 (Tox21 assays [3]; ATG_PPARg_TRANS_up, re-evaluated Tox21 data, ref Adamovsky et al 2024): 3.95e-06 M
- EC10 (Tox21 assays [3]; [6]): 9.55e-06 M
- EC10 (Tox21 assays [3]; [8]): 8.91E-08
- EC50 (ERα; [16]): 3800 nM
- EC50 (ERα; ref Kojima et al 2019): 320 nM
- EC50 (ERα; ref Pelch et al 2019): 1600 nM
- Efficacy % (ERα; ref Pelch et al 2019): 63.10%
- EC50 (ERα; ref Reiniger et Oehlmann 2024): 2540 nM
- Efficacy % (ERα; ref Reiniger et Oehlmann 2024): 1.05E+02%
- REPBPA (Tox21 assays [4]; ATG_PPARg_TRANS_up, Relative Effect Potency): 0.40
- SRbaseline (Tox21 assays [4]; ATG_PPARg_TRANS_up): 41.61
- SRbaseline (Tox21 assays [4]; [11]): 17.20
- REPBPA (Tox21 assays [4]; [8]): 4.84E-01

SMILES: O=S(=O)(c1ccc(O)cc1)c1ccc(O)cc1 [BPS, 4,4'-Sulfonyldiphenol]
- EC10, ERα (M) (Estrogen Receptor ERα): 1.43 × 10^–6 M
- EC10, linear transformed (Estrogen Receptor ERα; Bioassay ERα, dosing range high, in M): 1.15E-06
- EC10, linear (Estrogen Receptor ERα; Bioassay ERα, dosing range high, linear model fit, in M): 1.20E-06
- logEC10 (Estrogen Receptor ERα; Bioassay ERα, dosing range high, log-logistic model fit): -5.97
- EC10, linear transformed (Estrogen Receptor ERα; ERα bioassay, dosing range low, in M): 1.65E-06
- EC10, linear (Estrogen Receptor ERα; ERα bioassay, dosing range low, linear model, in M): 1.43E-06
- logEC10 (Estrogen Receptor ERα; ERα bioassay, dosing range low, log-logistic model): -5.76
- Efficacy % (Estrogen Receptor ERα): 65.69%
- EC10 (Estrogen Receptor ERα; in M): 1.43E-06
- REPBPA (Estrogen Receptor ERα): 2.59E-01
- EC10, ERα (Estrogen Receptor ERα): 1430 nM
- log(1/EC10) ERα (Estrogen Receptor ERα): 0.75
- Emax (Estrogen Receptor ERα; [15]): 66%
- log Kow used [1]: 1.97
- % Loss [2]: -2%
- EC50 (ERα; [16]): 83300 nM
- EC50 (ERα; ref Kojima et al 2019): 5400 nM
- EC50 (ERα; ref Pelch et al 2019): 1300 nM
- Efficacy % (ERα; ref Pelch et al 2019): 61.60%
- Efficacy % (ERα; ref Reiniger et Oehlmann 2024): 7.90E+00%
- REPBPA,ERα reported in the literature (ERα; ref Text S5.4, Tables S2 and S7): 0.02–1
- SRbaseline (Tox21 assays [4]; ATG_PPARg_TRANS_up): 2973
- REPBPA (Tox21 assays [4]; ATG_chAR_XSP2_up, Relative Effect Potency): 1.00
- SRbaseline (Tox21 assays [4]; ATG_chAR_XSP2_up): 645.8
- SRbaseline (Tox21 assays [4]; ATG_hPPARg_XSP2_up): 3669
- REPBPA (Tox21 assays [4]; [9]): 0.0653
- SRbaseline (Tox21 assays [4]; [10]): 127.8
- REPBPA (Tox21 assays [4]; [7]): 1.59E-01
- REPBPA (Tox21 assays [4]; [8]): 1.68E-02

SMILES: Cc1ccc(S(=O)(=O)NC(=O)Nc2ccc(Cc3ccc(NC(=O)NS(=O)(=O)c4ccc(C)cc4)cc3)cc2)cc1 [BTUM, 4,4'-Bis(p-tolylsulfonylureido)diphenylmethane]
- EC10, linear (Estrogen Receptor ERα; Bioassay ERα, dosing range all, linear model fit): no effect
- logEC10 (Estrogen Receptor ERα; [14]): no effect
- ERα activation (Estrogen Receptor ERα; at noncytotoxic concentrations): did not activate ERα at noncytotoxic concentrations
- PPARγ transactivation reported in the literature (PPARγ): weaker effects
- reduction of C parent after aCYP oxidation ([5]; 15 min, 30 °C): 70%
- % Loss [5, 17]: 70%
- Cparent-Ratio Mean [5, 18]: 0.30
- Cparent-Ratio Rep.1 % [5]: 26.78%
- Cparent-Ratio Rep.1 [5, 19]: 0.27
- Cparent-Ratio Rep.2 % [5]: 33.79%
- Cparent-Ratio Rep.2 [5, 20]: 0.34
- % Loss ([5]; Table S11): 79%
- Cparent-Ratio Mean [5, 21]: 0.21
- Cparent-Ratio Rep.1 [5, 21]: 0.23
- Cparent-Ratio Rep.2 [5, 21]: 0.18

SMILES: O=C(OCc1ccccc1)c1ccc(O)cc1 [BzPB, Benzyl 4-hydroxybenzoate]
- EC10, ERα (M) (Estrogen Receptor ERα): 3.02 × 10^–6 M
- EC10, linear transformed (Estrogen Receptor ERα; [12]): 3.07E-06
- EC10, linear (Estrogen Receptor ERα; [13]): 1.96E-06
- logEC10 (Estrogen Receptor ERα; [14]): -5.52
- SR-ScoreERα (Estrogen Receptor ERα; SR-Score, sigma k=1, x=5): 1.00
- Efficacy % (Estrogen Receptor ERα): 53.46%
- EC10 (Estrogen Receptor ERα; in M): 3.02E-06
- REPBPA (Estrogen Receptor ERα): 1.23E-01
- Specificity ratio (SRbaseline) SRERα (Estrogen Receptor ERα; against baseline cytotoxicity): 5.49
- Specificity ratio (SRcytotoxicity) SRERα (Estrogen Receptor ERα; against experimental cytotoxicity): 13.93
- EC10, ERα (Estrogen Receptor ERα): 3020 nM
- log(1/EC10) ERα (Estrogen Receptor ERα): 0.70
- Emax (Estrogen Receptor ERα; read-out: Emax%ERα): 53%
- Relative effect potency REPERα (Estrogen Receptor ERα; relative to BPA): 0.12
- log Kow used [1]: 3.30
- Efficacy % (ERα; ref Pelch et al 2019): 19.70%
- % Loss [5, 17]: -22%
- Cparent-Ratio Mean [5, 18]: 1.22
- Cparent-Ratio Rep.1 % [5]: 115.59%
- Cparent-Ratio Rep.1 [5, 19]: 1.16
- Cparent-Ratio Rep.2 % [5]: 128.10%
- Cparent-Ratio Rep.2 [5, 20]: 1.28
